# In patent US20240423204A1, “METHOD AND USE OF AN ENANTIOMER OF 3,4-DIHYDROXYPHENYLALANINE (DOPA) FOR ENHANCING PLANT ATTRACTIVENESS TO BENEFICIAL INSECTS” (BIOBAB R&D, S.L., priority 2021, published 2024):
# Experiments:
# [1] = system: bean plants (Phaseolus vulgaris); test: VOC induction assay on bean plants (Phaseolus vulgaris) in hydroponic medium; format: in vivo; details: 10 μg, 24 h
# Description: Beans (Phaseolus vulgaris cv CGB0002) were sown in sterile vermiculite and kept in a glasshouse at 27° C. After 17 days, the seedlings were gently removed from the vermiculite. They were then placed in glass beakers containing 150 mL of hydroponic solution made with Hoagland's modified basalt salt mixture, (MP, USA), and maintained in an environmental chamber at 27° C. Each beaker, containing one seedling, was wrapped in aluminum foil to hold the plants in position and to prevent the light from reaching the roots. After 2 days plants were treated with L-DOPA (10 μg), D-DOPA (10 μg) or HPLC water (control, 10 μl).
# (§1) After 24 h, the volatile organic compounds (VOCs) emitted from the plant were collected through a dynamic headspace.
# (§2) The bean plants were enclosed in a glass vessel with a volume of 3.2 I. The bottom of the vessel was enclosed around the top of the pot. Air that had been purified by passage through an activated charcoal filter (BDH, 10-14 mesh) was pushed into (750 ml·min^−1) and pulled (700 ml·min^−1) out of the vessel. VOCs were trapped onto Porapack™ (Porous Polymer Adsorbent) 50/80 mesh (50 mg; Supelco, Bellefonte, USA) held in glass tubing (5 mm outer diameter) by two plugs of silanised glass wool. The Porapack™ tube was conditioned by washing with redistilled diethyl ether (2 ml) and heating at 130° C. for 4 h under a stream of purified nitrogen.
# (§3) VOCs collected on the Porapak™ were eluted with 750 μL of redistilled diethyl ether and the samples were stored at −20° C. until analysis.
# (§4) For the analysis, four samples (1 μL) from each treatment (L-DOPA, D-DOPA and Control) were analyzed on an Agilent 7820A Gas Chromatograph (Agilent Technologies, Santa Clara, California, USA), equipped with a cool column injector, flame ionization detector (FID), and a HP-1 capillary GC column (50 m×0.32 mm internal diameter×0.52 μm film thickness). Hydrogen was the carrier gas. The oven temperature was maintained at 30° C. for 0.1 min, then programmed to increase at 10° C.·min^−1 until 250° C., and then held for 38 min. Tentative identifications were made by Kovats' Index values and GC peak enhancement on GC columns of HP-1, using authentic samples of chemicals compounds.
# bean plants (Vicia faba) [2] = test: VOC induction assay on bean plants (Vicia faba) in hydroponic medium; format: in vivo; details: 10 μg
# Description: Broad beans (Vicia faba cv Histal) were potted in sterile vermiculite and kept in a glasshouse at 23° C. After 7 days, the seedlings were gently removed from the vermiculite, the cotyledons peeled and the roots rinsed with bidistilled water, carefully brushing away all soil particles. They were then placed in glass beakers containing a hydroponic solution made with Hoagland's modified basalt salt mixture, (MP, USA), and maintained in an environmental chamber at 23° C. Each beaker, containing three seedlings, was wrapped in aluminum foil to hold the plants in position and to prevent the light from reaching the roots. Every 4 days, the hydroponic solution in each beaker was renewed. After 10 days plants were treated with L-DOPA (10 μg), D-DOPA (10 μg) or HPLC water (control, 10 μl) dissolved in 30 mL of distilled water.
# as §2, §3, §4
# [3] = system: bean plant (Vicia faba) leaves; test: Estimation of total phenolic content in bean plant (Vicia faba) leaves, Folin-Ciocalteu assay; format: in vivo; details: soil/vermiculite, 10 μg in 30 mL, 24 h
# Description: The estimation of total phenolic content in bean plant leaves (Vicia faba) was based on the procedure developed by Ainsworth, E.A. et al. (2007) using Folin-Ciocalteu (F-C) reagent. F-C assay is commonly been used to assay total phenolic content. The F-C assay provides a convenient, rapid, and simple estimation of the content of total phenolics, and other oxidation substrates in plant extracts.
# Broad bean (Vicia faba cv Histal) plants were grown in a mixture of sterile soil/vermiculite (7:3) for 10 days, and treated with L-DOPA (10 μg), D-DOPA (10 μg) or HPLC water (control, 10 μl) dissolved in 30 mL of distilled water. After 24 h harvest leaves material (approximately 20 mg) in screw-capped tubes and freeze immediately in liquid nitrogen.
# To homogenize the tissue, three tungsten carbide beads and 2 ml of ice-cold 95% (vol/vol) methanol were added in each sample tube and insert samples into pre-cooled Teflon adaptors. Tissue was homogenized for 5 min at 30 Hz. […]
# Finally, a […] sample, standard or blank from the assay tube were transferred to a clear 96-well micro-plate and the absorbance of each was measured at 750 nm using a spectrophotometer.
# For calculate the total phenolic content, first a standard curve from the blank-corrected A750 of the gallic acid standards was calculated. […]
# Aphidius ervi = test: Behavioral assay in two-way olfactometer, bean plants (Vicia faba) treated by soil application; format: in vivo; details: 10 min, Vicia faba 3-4 weeks, versus clean plant
# Description: Broad bean seeds (Vicia faba cv Aguadulce supersimonia) were planted individually in plastic pots (6×6×9 cm) filled with Traysubstrat topsoil (Klasmann-Deilmann GmbH) or a mixture of agriperlite, vermiculite, and sand (1:1:1) and grown in an environmental chamber (24±2° C., 45±10% RH, 14 h: 8 h L: D).
# For this example, bean plants of 3-4 weeks were used. Plants were treated by soil application of the two isomers of DOPA: 3,4-dihydroxy-L-phenylalanine (Alfa Aesar, CAS Number 59-92-7) and 3,4-dihydroxy-D-phenylalanine (Sigma Aldrich, CAS Number 5796-17-8).
# Untreated plants were also used as control.
# The attractiveness of beneficial insects, specifically Aphidius ervi, towards a bean plants treated with the isomers of DOPA compared to clean bean plant (control) was evaluated in an olfactometer.
# The behavioral response of A. ervi were evaluated over 10 min in a two-way olfactometer. Only active insects, i.e. insects that spent at least 60 s in the treatment (trt) and/or control (cnt) arm of the olfactometer were taken into account.
# The results obtained in this example are expressed as a percentage of residence time in each olfactometer arm where the parasitoid remained, relative to the total time spent in the two arms. Paired t-tests were conducted using R (free software environment for statistical computing and graphics).
# bean plants (Vicia faba) [4] = test: VOC induction assay on bean plants (Vicia faba) in soil/vermiculite; format: in vivo; details: 10 μg in 30 mL, 24 h, 6-methyl-5-hepten-2one, cis-3-hexen-1-ol, cis-3-hexenyl acetate, ocimene
# Description: Broad beans (Vicia faba cv Histal) plants were grown in a mixture of sterile soil/vermiculite (7:3) for 10 days, and treated with L-DOPA (10 μg), D-DOPA (10 μg) or HPLC water (control, 10 μl) dissolved in 30 mL of distilled water.
# as §1
# as §2, with “nitrogen. […]” for “nitrogen.”
# (§5) For the analysis, four samples (1 μL) from each treatment (L-DOPA, D-DOPA and Control) were analyzed on an Agilent 7820A Gas Chromatograph (Agilent Technologies, Santa Clara, California, USA), equipped with a cool column injector, flame ionization detector (FID), and a HP-1 capillary GC column (50 m×0.32 mm internal diameter×0.52 μm film thickness). […]
# [5] = system: wheat plants (Triticum monococcum); test: VOC induction assay on wheat plants (Triticum monococcum) in soil; format: in vivo; details: 10 μg in 30 mL, 24 h
# Description: Wheat (Triticum monococcum VAR Tocayo) plants were grown in sterile soil for 15 days (20 seeds per pot), and treated with L-DOPA (10 μg), D-DOPA (10 μg) or HPLC water (control, 10 μl) dissolved in 30 mL of distilled water.
# as §1
# as §2, with “wheat” for “bean”, “nitrogen. […]” for “nitrogen.”
# as §5
# many plants = details: allelochemical effect, Nishihara et al (2004); cited from earlier work
# [6] = system: bean plants (Phaseolus vulgaris); test: VOC induction assay on bean plants (Phaseolus vulgaris) in soil; format: in vivo; details: 10 μg in 30 mL, 24 h, cis-3-hexenyl acetate and ocimene
# Description: Bean (Phaseolus vulgaris cv CGB0002) plants were grown in sterile soil for 5 days, and treated with L-DOPA (10 μg), D-DOPA (10 μg) or HPLC water (control, 10 μl) dissolved in 30 mL of distilled water.
# as §1
# as §2, with “nitrogen. […]” for “nitrogen.”
# as §5
Structure (SMILES),concentration of cis-3-hexen-1-ol versus control [1],concentration of ocimene versus control [1],concentration of 6-methyl-5-hepten-2one versus control (bean plants (Vicia faba) [2]),concentration of cis-3-hexenyl acetate versus control (bean plants (Vicia faba) [2]),concentration of ocimene versus control (bean plants (Vicia faba) [2]),total phenolic content versus untreated plants (control) [3],"residence time of A. ervi females on treated bean plants, higher than for untreated plants (Aphidius ervi)",concentration of VOCs (FID response) emitted by the plant versus control (bean plants (Vicia faba) [4]),concentration of ocimene versus control [5],concentration of 6-methyl-5-hepten-2one versus control [1],concentration of cis-3-hexenyl acetate versus control [1],growth of plants (especially radicle and hypocotyl) (many plants),concentration of VOCs (FID response) versus control [6]
"N[C@H](Cc1ccc(O)c(O)c1)C(=O)O [D-DOPA, D-3,4-dihydroxyphenylalanine]",A change is observed,A change is observed,A change is observed,A change is observed,A change is observed,higher,approx. +20%,A change is observed,–,–,–,–,–
"N[C@@H](Cc1ccc(O)c(O)c1)C(=O)O [L-DOPA, L-3,4-dihydroxyphenylalanine]",A change is observed,A change is observed,A change is observed,A change is observed,A change is observed,higher,approx. +20%,A change is observed,A change is observed,A change is observed,A change is observed,reduced the growth,A change is observed
